Measured values taken from patent US8999957B2, “Heterocyclic compounds as ERK inhibitors” (Merck Sharp & Dohme Corp., priority 2010, dated 2015).

Molecular target: fully phosphorylated, mouse aERK2 enzyme (Mus musculus (Mouse), UniProt P63085)
Experiment: Active ERK2 (aERK) IMAP-FP assay, condition 2
Assay type: biochemical
Conditions: aERK assay condition 2, 30 uM ATP; read-out: aERK IC50
Procedure, shortened: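 Phosphorylation by fully phosphorylated mouse ERK2 ran 40-45 min, then quenched with IMAP beads (1:1000) in binding buffer; fluorescence polarization read after 30 min binding equilibration.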

fully phosphorylated, mouse aERK2 enzyme, sequence (P63085 whole entry): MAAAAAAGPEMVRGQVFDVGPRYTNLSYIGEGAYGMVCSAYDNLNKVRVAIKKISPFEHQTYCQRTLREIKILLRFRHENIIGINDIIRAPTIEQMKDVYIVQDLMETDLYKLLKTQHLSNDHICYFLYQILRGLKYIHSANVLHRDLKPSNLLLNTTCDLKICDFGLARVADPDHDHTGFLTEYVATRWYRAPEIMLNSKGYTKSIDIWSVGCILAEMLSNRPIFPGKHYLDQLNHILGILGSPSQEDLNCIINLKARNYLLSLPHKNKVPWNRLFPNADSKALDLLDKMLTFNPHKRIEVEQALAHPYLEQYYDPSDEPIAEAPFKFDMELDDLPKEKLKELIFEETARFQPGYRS

Row | IC50 | SMILES
1 | 0.0208 µM | CNC(=O)C(c1c(F)cccc1F)N1CCC[C@@H](NC(=O)c2ccc3[nH]nc(-c4ccncc4)c3c2)C1 (single isomer, unassigned) [drawing 506, N-((R)-1-((S or R)-1-(2,6-difluorophenyl)-2-(methylamino)-2-oxoethyl)piperidin-3-yl)-3-(pyridin-4-yl)-1H-indazole-5-carboxamide]
2 | 0.0152 µM | COc1cccc(F)c1CN1C[C@H](NC(=O)c2ccc3[nH]nc(-c4ccnc(C)c4)c3c2)CC[C@H]1C(=O)Nc1cccc(F)c1 [N-{(3R,6S)-1-(2-fluoro-6-methoxybenzyl)-6-[(3-fluorophenyl)carbamoyl]piperidin-3-yl}-3-(2-methylpyridin-4-yl)-1H-indazole-5-carboxamide]
3 | 0.206 µM | O=C(N[C@@H]1CCCN(CC2CC2)C1)c1ccc2[nH]nc(-c3ccncc3)c2c1
4 | 0.0046 µM | CNC(=O)C(c1ccccc1F)N1CCC[C@@H](NC(=O)c2ccc3[nH]nc(-c4ccncc4)c3c2)C1 (single isomer, unassigned) [drawing 502, N-((R)-1-((S or R)-1-(2-fluorophenyl)-2-(methyl-amino)-2-oxoethyl)piperidin-3-yl)-3-(pyridin-4-yl)-1H-indazole-5-carboxamide]

Same assay, conditions: active ERK2; read-out: aErk2 Ic50

Row | IC50 | SMILES
5 | 0.0027 µM | CNC(=O)[C@@H]1CC[C@@H](NC(=O)c2ccc3[nH]nc(-c4ccnc(C)c4)c3c2)CN1Cc1c(F)cccc1OC [N-[(3R,6S)-1-(2-fluoro-6-methoxybenzyl)-6-(methylcarbamoyl)piperidin-3-yl]-3-(2-methylpyridin-4-yl)-1H-indazole-5-carboxamide]
6 | 0.0349 µM | COc1cccc(F)c1CN1C[C@H](NC(=O)c2ccc3[nH]nc(-c4ccnc(C)c4)c3c2)CC[C@H]1C(=O)N1CCC1 [N-[(3R,6S)-6-(azetidin-1-ylcarbonyl)-1-(2-fluoro-6-methoxybenzyl)piperidin-3-yl]-3-(2-methylpyridin-4-yl)-1H-indazole-5-carboxamide]
7 | 0.0282 µM | CCN(CC)C(=O)[C@@H]1CC[C@@H](NC(=O)c2ccc3[nH]nc(-c4ccnc(C)c4)c3c2)CN1Cc1cccs1
8 | 0.0728 µM | [2H]C([2H])([2H])Oc1cccc(F)c1CN1C[C@H](NC(=O)c2ccc3[nH]nc(-c4ccc5nc(C)sc5c4)c3c2)CC[C@H]1C(=O)N1CCN(C(=O)OC(C)(C)C)CC1
9 | 0.001 µM | COc1cccc(F)c1CN1C[C@H](NC(=O)c2ccc3[nH]nc(-c4ccnc(C)c4)c3c2)CC[C@H]1C(N)=O [N-[(3R,6S)-6-carbamoyl-1-(2-fluoro-6-methoxybenzyl)piperidin-3-yl]-3-(2-methylpyridin-4-yl)-1H-indazole-5-carboxamide]
10 | 0.0122 µM | COc1cccc(F)c1CN1C[C@H](NC(=O)c2ccc3[nH]nc(-c4ccnc(C)c4)c3c2)CC[C@H]1C(=O)NN(C)C [N-[(3R,6S)-6-[(2,2-dimethylhydrazino)-carbonyl]-1-(2-fluoro-6-methoxybenzyl)-piperidin-3-yl]-3-(2-methylpyridin-4-yl)-1H-indazole-5-carboxamide]
